In patent publication US20160137639A1, “TRIAZOLE-ISOXAZOLE COMPOUND AND MEDICAL USE THEREOF” (JAPAN TOBACCO INC., priority 2012, published 2016):
Read-outs that look alike come from different tables or passages of the source.

Columns and labels:
human RORγ = biological target: T1, human RORγ (Homo sapiens, UniProt P51449); test: Luciferase reporter gene assay of inhibitory effect against RORγ transcriptional activity (GAL4-hRORγ plasmid in CHO cells); assay type: cell-based
T1 construct: human, NM_005060.3 and from Ser253 to Lys518; expressed in transfected cells; host or cells: CHO cells (transient co-transfection with pG5-Luc reporter)
T1 sequence (P51449 253-518): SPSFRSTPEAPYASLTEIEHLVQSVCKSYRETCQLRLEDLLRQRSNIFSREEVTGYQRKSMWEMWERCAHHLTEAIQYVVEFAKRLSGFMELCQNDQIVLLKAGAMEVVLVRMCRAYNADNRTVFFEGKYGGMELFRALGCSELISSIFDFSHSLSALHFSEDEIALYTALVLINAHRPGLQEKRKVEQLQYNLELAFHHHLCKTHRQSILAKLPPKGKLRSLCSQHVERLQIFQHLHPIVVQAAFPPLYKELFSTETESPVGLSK
Protocol: (§1) In vitro assay of inhibitory effect against RORγ transcriptional activity
(§2) Inhibitory effect of test article on transcriptional activity of RORγ was measured by means of the following luciferase reporter gene assay.
(§3) A cDNA encoding human and mouse RORγ ligand binding domain (LBD) were obtained based on the reported sequences (Genebank accession number and sequence: human, NM_005060.3 and from Ser253 to Lys518; mouse, NM_011281.2 and from Ile251 to Lys516).
(§4) The cDNA of human RORγ or mouse RORγ was inserted into pFA-CMV vector (Strategene), which expresses GAL4-DNA binding domain fusion protein.
(§5) The resulting plasmids are hereinafter referred to as GAL4-hRORγ plasmid and GAL4-mRORγ plasmid, respectively.
(§6) Human or mouse GAL4-RORγ plasmid was transiently co-transfected into Chinese hamster ovary cells (CHO cells) with […] plasmid, a reporter plasmid expressing firefly luciferase depending on GAL4.
(§7) TransIT CHO transfection reagent (Mirus) was used to co-transfect human or mouse GAL4-RORγ plasmid into CHO cells with pG5-Luc plasmid.
(§8) One day before the assay, CHO cells were suspended in HAM F-12 Nutrient medium containing 10 v/v % fetal bovine serum and seeded at 6×10^6 cells per 175 cm^2 cell culture flask.
(§9) Fifty four micro litters of Transit-CHO reagent was added into a 15 ml tube containing 1.16 ml of HAM F-12 Nutrient medium without fetal bovine serum and incubated at room temperature for 10 min.
A total 36 uL plasmid solution containing the GAL4-hRORγ plasmid (400 ng), pG5-Luc plasmid (9000 ng) and pcDNA3 plasmid (8600 ng) were added into the tube and mixed gently.
(§10) The mixture was incubated at room temperature for 10 min.
(§11) Nine micro litters of CHO Mojo Reagent was then added into each tube and mixed gently. The mixture was incubated at room temperature for 10 min.
(§12) The resultant transfection reagent was applied to the cell culture.
(§13) After incubation at 37° C., 5% CO2 for 4 hr, the transfected CHO cells were harvested by a trypsin treatment.
(§14) The collected cells were resuspended in HAM F-12 Nutrient medium supplemented with 10 v/v % fetal bovine serum and plated into a 384-well-white plate at 8,000 cells/50 uL/well.
(§15) The plate was incubated at room temperature for 1 hour and then further incubated at 37° C., 5% CO2 for 3 hours.
(§16) The test articles were dissolved in dimethylsulfoxide (DMSO) to obtain a concentration of 10 mmol/L. The resulting solution was diluted with the medium just before use and added to the cells in the plate to prepare 8 different concentrations of the test article.
(§17) The final concentration of DMSO was 0.1 v/v % After the addition of the test articles, the cells were incubated at 37° C., 5% CO2 for 2 days.
(§18) RORγ transcriptional activity was detected as the intracellular luciferase activity using SteadyLite HTS Reporter Gene Assay System (Perkin Elmer).
(§19) StedyLite Reagent was diluted five-fold into a solution containing 10 mM Tricine, 0.2% w/v BSA, 0.02% v/v Tween-20 to obtain the luciferase substrate solution.
(§20) After the measurement of the cell viability using Resazurin, the culture media in the 384 well-plate were removed. Then the Luc substrate solution was added into each well.
(§21) After the incubation at room temperature for 10 minutes, luminescence of each well was measured by a microplate reader.
(§22) The luciferase activity derived from the luminescence count in the vehicle-control well treated with 0.1% DMSO alone was defined as 100%, and the luciferase activity in the test article was calculated as a percentage (%-of-control) based on the value of the vehicle-control.
(§23) EC50 value of test article was calculated by curve fitting with GraphPad Prism.
(§24) The luminescence counts at the concentration of the test article where the cytotoxicity was observed were excluded from the data analysis.

mouse RORγ = biological target: T2, mouse RORγ (Mus musculus, UniProt P51450); test: Luciferase reporter gene assay of inhibitory effect against RORγ transcriptional activity (GAL4-mRORγ plasmid in CHO cells); assay type: cell-based
T2 construct: mouse, NM_011281.2 and from Ile251 to Lys516; expressed in transfected cells; host or cells: CHO cells (transient co-transfection with pG5-Luc reporter)
T2 sequence (P51450 251-516): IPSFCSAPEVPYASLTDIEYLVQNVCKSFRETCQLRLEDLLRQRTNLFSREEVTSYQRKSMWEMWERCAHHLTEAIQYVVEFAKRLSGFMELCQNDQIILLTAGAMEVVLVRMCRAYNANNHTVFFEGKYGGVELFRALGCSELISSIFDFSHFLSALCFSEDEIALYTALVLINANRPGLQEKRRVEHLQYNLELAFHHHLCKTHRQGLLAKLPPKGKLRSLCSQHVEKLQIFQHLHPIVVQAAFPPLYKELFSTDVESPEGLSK
Protocol: as §1, §2, §3, §4, §5, §6, §7, §8, §9, §10, §11, §12, §13, §14, §15, §16, §17, §18, §19, §20, §21, §22, §23, §24

Compound | EC50 (human RORγ; read-out: LUC EC50 (μM) hRORg) [µM] | EC50 (mouse RORγ; read-out: LUC EC50 (μM) mRORg) [µM] | EC50 (human RORγ; read-out: LUC EC50 hRORg) [µM] | EC50 (mouse RORγ; read-out: LUC EC50 mRORg) [µM]
Cc1c(Cl)cccc1NC(=O)CCc1nnc(C2CC(C)C2)n1C1CC1 (mixture of isomers) [Example F-168] | > 3 | < 3 | – | –
Cc1ccc(NC(=O)CCc2nnc(C3CC(CC(=O)OC(C)(C)C)C3)n2C2CC2)c(C)c1 (mixture of isomers) [Example F-427] | > 3 | < 3 | – | –
Cc1ccc(NC(=O)CC(CC(=O)N2CC[C@@H](O)C2)c2nnc([C@H]3C[C@@H](CC(C)C)C3)n2C2CC2)c(C)c1 (mixture of isomers) [Example F-502] | – | – | > 3 | > 3
Cc1ccc(NC(=O)CC(CC(=O)N2CC[C@H](O)C2)c2nnc([C@H]3C[C@@H](CC(C)C)C3)n2C2CC2)c(C)c1 (mixture of isomers) [Example F-503] | – | – | > 3 | > 3
Cc1ccc(NC(=O)C[C@H](CCC(=O)O)c2noc3c2C(C)CCC3CCC(C)C)c(Cl)c1 (mixture of isomers) [Example F-691] | – | – | < 3 | < 3
Cc1ccc(NC(=O)CCc2noc(C3(CO)CC(CC(C)(C)C)C3)c2C2CC2)c(Cl)c1 (mixture of isomers) [Example F-730] | – | – | < 3 | < 3
Cc1ccc(NC(=O)CCc2noc(C3(O)CC(CC(C)(C)C)C3)c2C2CC2)c(Cl)c1 (mixture of isomers) [Example F-732] | – | – | < 3 | < 3
CC(=O)OCCC1(c2onc(CCC(=O)Nc3ccc(C)cc3Cl)c2C2CC2)CC(CC(C)(C)C)C1 (mixture of isomers) [Example F-737] | – | – | > 3 | > 3
Cc1ccc(NC(=O)CCc2noc(C3(CCO)CC(CC(C)(C)C)C3)c2C2CC2)c(Cl)c1 (mixture of isomers) [Example F-742] | – | – | > 3 | > 3
Cc1ccc(NC(=O)CCc2noc(C3(CC(=O)O)CC(CC(C)(C)C)C3)c2C2CC2)c(Cl)c1 (mixture of isomers) [Example F-743] | – | – | > 3 | > 3
CCn1c(C2Cc3ccccc3C2)nnc1[C@H]1C[C@@H]1C(=O)Nc1cccc2ccccc12 (racemic) [Example F-26] | > 3 | > 3 | – | –
CCn1c(C2Cc3ccccc3C2)nnc1[C@@H]1C[C@@H]1C(=O)Nc1cccc2ccccc12 (racemic) [Example F-27] | > 3 | < 3 | – | –
CCn1c(CC(C)C(=O)Nc2cccc3ccccc23)nnc1C1Cc2ccccc2C1 (racemic) [Example F-32] | < 3 | < 3 | – | –
CCn1c(C(C)CC(=O)Nc2cccc3ccccc23)nnc1C1Cc2ccccc2C1 (racemic) [Example F-33] | < 3 | < 3 | – | –
CCn1c(C(O)CC(=O)Nc2cccc3ccccc23)nnc1C1Cc2ccccc2C1 (racemic) [Example F-34] | > 3 | > 3 | – | –
CCn1c(CCC2CCCCC2)nnc1[C@H]1CCCC[C@@H]1C(=O)Nc1cccc2ccccc12 (racemic) [Example F-35] | < 3 | < 3 | – | –

Compound | EC50 (human RORγ; read-out: LUC EC50 (μM) hRORg) [µM] | EC50 (mouse RORγ; read-out: LUC EC50 (μM) mRORg) [µM] | EC50 (human RORγ; read-out: LUC EC50 hRORg) [µM] | EC50 (mouse RORγ; read-out: LUC EC50 mRORg) [µM]
CCn1c(CCC2CCCCC2)nnc1[C@H]1C[C@@H]1C(=O)Nc1cccc2ccccc12 (racemic) [Example F-36] | > 3 | > 3 | – | –
CCn1c(CCC2CCCCC2)nnc1[C@H]1C[C@@H]1C(=O)Nc1cccc2ccccc12 (racemic) [Example F-37] | – | < 3 | – | –
CC(C)CCc1nnc(CCC(=O)NC2CCc3ccccc32)n1C1CC1 (racemic) [Example F-83] | > 3 | > 3 | – | –
Cc1c(Cl)cccc1NC(=O)CCc1nnc(C(C)CC(C)C)n1C1CC1 (racemic) [Example F-98] | > 3 | < 3 | – | –
Cc1c(Cl)cccc1NC(=O)CCc1nnc(CC(C)C(C)C)n1C1CC1 (racemic) [Example F-117] | > 3 | < 3 | – | –
Cc1ccc(NC(=O)CCc2nnc(CCC3CCCCC3)n2[C@@H]2C[C@H]2C)c(C)c1 (racemic) [Example F-141] | > 3 | < 3 | – | –
CC(=O)N1C[C@H](C(=O)Nc2cccc(Cl)c2C)[C@@H](c2nnc(CCC(C)C)n2C2CC2)C1 (racemic) [Example F-145] | < 3 | < 3 | – | –
Cc1c(Cl)cccc1NC(=O)[C@H]1CN(C(=O)CO)C[C@@H]1c1nnc(CCC(C)C)n1C1CC1 (racemic) [Example F-146] | > 3 | < 3 | – | –
CC(=O)N1C[C@H](C(=O)Nc2cccc(Cl)c2C)[C@@H](c2nnc(CCC3CCCCC3)n2C2CC2)C1 (racemic) [Example F-155] | < 3 | < 3 | – | –
CCOC(=O)C(CC(=O)Nc1cccc(Cl)c1C)c1nnc(CCC(C)C)n1C1CC1 (racemic) [Example F-159] | > 3 | > 3 | – | –
CC(=O)N1C[C@H](C(=O)Nc2ccc(C)cc2C)[C@@H](c2nnc(CCCC(C)(C)C)n2C2CC2)C1 [Example F-432] | < 3 | – | – | –
Cc1ccc(NC(=O)C[C@H](c2nnc([C@H]3C[C@@H](CC(C)C)C3)n2C2CC2)[C@H]2C[C@@H](O)C2)c(C)c1 [Example F-514] | – | – | – | > 3
Cc1ccc(NC(=O)C[C@@H](c2nnc([C@H]3C[C@@H](CC(C)C)C3)n2C2CC2)[C@H]2C[C@@H](O)C2)c(C)c1 [Example F-515] | – | – | – | < 3
Cc1ccc(NC(=O)C[C@H](c2nnc([C@H]3C[C@@H](CC(C)C)C3)n2C2CC2)[C@H]2C[C@H](O)C2)c(C)c1 [Example F-522] | – | – | – | > 3
Cc1ccc(NC(=O)C[C@@H](c2nnc([C@H]3C[C@@H](CC(C)C)C3)n2C2CC2)[C@H]2C[C@H](O)C2)c(C)c1 [Example F-523] | – | – | – | < 3
Cc1ccc(NC(=O)[C@H](CC(=O)O)Cc2noc([C@H]3C[C@@H](CC(C)(C)C)C3)c2C2CC2)c(Cl)c1 [Example F-678] | – | – | < 3 | –
